Where two headings read alike, the source gives them in different places.
Key:
[1] = test system: SARS-CoV-2 (hCoV-19/Taiwan/4/2020); assay: microbe, parasite or virus in culture; format: cell-based
SARS-CoV-2 [2] = assay: Quantification of SARS-CoV-2 via antibody staining (viral NP protein) in Vero E6 cells; format: cell-based; details: for IC50: viral titer by antinucleocapsid antibody
[3] = target: Papain-like protease (nsp3) of SARS-CoV-2 (Severe acute respiratory syndrome coronavirus 2, UniProt P0DTD1); assay: biochemical; format: biochemical; details: read-out: Inhibition % at 100 uM of compounds, Papain-like protease (nsp3)
SARS-CoV-2 [4] = assay: In vivo anti-SARS-CoV-2 assay, lung virus load; details: female golden Syrian hamsters, intranasal infection day 0, oral twice a day 30 mg/kg/d for 3 d, n = 5
[5] = hamster, in vivo
in vitro = details: African green monkey, CC50 (μM), Vero E6 cells

CC[C@@H](C(=O)[C@@H](C)[C@@H](O)[C@H](C)[C@@H]1O[C@@H]([C@@H](CC)C(=O)O)CC[C@@H]1C)[C@H]1O[C@]2(C=C[C@@H](O)[C@]3(CC[C@@](C)([C@H]4CC[C@](O)(CC)[C@H](C)O4)O3)O2)[C@H](C)C[C@@H]1C [Salinomycin 13, Salinomycin]
minimal effective concentration ([1]; Severe acute respiratory syndrome coronavirus 2, Vero C1008, 72 h, read-out: CPE (μM) D3): 0.039 µM
minimal effective concentration ([1]; Severe acute respiratory syndrome coronavirus 2, Vero C1008, 120 h, […], N.I. = no inhibition, dash = cytotoxicity was observed, read-out: CPE (μM) D5): 0.156 µM
IC50 (SARS-CoV-2 [2]; 100 PFU of SARS-CoV-2 (multiplicity of infection 0.025) in Vero E6 cells): 0.48 nM
selectivity ratio (SARS-CoV-2 [2]; African green monkey, Vero E6, CC50 vs IC50, read-out: selectivity index (antiviral effect vs cytotoxicity)): > 100
IC50 (SARS-CoV-2 [2]; Severe acute respiratory syndrome coronavirus 2, Vero C1008, 100 PFU of SARS-CoV-2 (multiplicity of infection 0.025) in Vero E6 cells): 0.479 nM
inhibition at 100 µM [3]: 9.4%
lung virus load vs control (drugs) (SARS-CoV-2 [4]): no significant antiinfective effect
body-weight change after 3-d treatment [5]: higher weight loss than the control group
CC50 (in vitro): 13.1 µM
